{"source": "paper PMC3495945", "about": "“Org 214007-0: A Novel Non-Steroidal Selective Glucocorticoid Receptor Modulator with Full Anti-Inflammatory Properties and Improved Therapeutic Index” (PLoS ONE, 2012)", "key": {"[1]": {"biological_target": "T1, human progesterone receptor B (PR-B) (Homo sapiens, UniProt P06401)", "T1 construct": "expressed in transfected cells; host or cells: CHO K1", "T1 sequence (P06401 1-933)": "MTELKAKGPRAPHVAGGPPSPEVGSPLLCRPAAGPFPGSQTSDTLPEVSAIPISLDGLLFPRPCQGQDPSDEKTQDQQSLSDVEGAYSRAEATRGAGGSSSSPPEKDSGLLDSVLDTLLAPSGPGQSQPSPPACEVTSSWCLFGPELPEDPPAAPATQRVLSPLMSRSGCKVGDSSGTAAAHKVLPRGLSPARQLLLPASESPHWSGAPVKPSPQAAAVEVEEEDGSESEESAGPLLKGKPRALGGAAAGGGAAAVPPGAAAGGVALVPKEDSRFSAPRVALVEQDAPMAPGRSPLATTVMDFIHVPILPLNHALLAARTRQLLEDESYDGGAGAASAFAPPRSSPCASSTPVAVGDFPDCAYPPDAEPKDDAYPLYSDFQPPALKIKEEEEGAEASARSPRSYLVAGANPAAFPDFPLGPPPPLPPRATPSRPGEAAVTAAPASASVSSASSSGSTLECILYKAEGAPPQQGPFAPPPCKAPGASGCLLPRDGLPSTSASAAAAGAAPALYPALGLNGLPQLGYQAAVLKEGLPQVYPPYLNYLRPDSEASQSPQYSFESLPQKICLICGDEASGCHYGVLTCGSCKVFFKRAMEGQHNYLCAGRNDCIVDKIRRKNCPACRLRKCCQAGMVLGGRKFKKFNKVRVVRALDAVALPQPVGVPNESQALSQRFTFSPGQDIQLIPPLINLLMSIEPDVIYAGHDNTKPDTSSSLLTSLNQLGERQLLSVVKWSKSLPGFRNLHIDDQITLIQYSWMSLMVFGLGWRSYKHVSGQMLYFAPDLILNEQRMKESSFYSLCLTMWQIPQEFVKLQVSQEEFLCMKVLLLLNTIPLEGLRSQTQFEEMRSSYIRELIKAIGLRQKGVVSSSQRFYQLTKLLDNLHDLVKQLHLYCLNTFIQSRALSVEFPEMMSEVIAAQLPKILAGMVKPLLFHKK", "assay": "CHO steroid receptor reporter assay, PR-B / MMTV-Luc", "assay_type": "cell-based", "text": "(§1) For monitoring both human steroid receptor agonistic as well as antagonistic activity of compounds, Chinese hamster ovary (CHO) K1 cells stably co-transfected with the specific human steroid receptor and its respective reporter construct were used (as previously described).\n(§2) For human glucocorticoid receptor (GR)-specific activity CHO-GR B4.8 cells containing both recombinant human GR as well as a reporter construct consisting of the mouse mammary tumor virus (MMTV) promotor and the luciferase reporter gene, were used. Compound was incubated alone (in the agonistic setup) or with 50 nM dexamethasone (in the antagonistic setup) overnight. Hereafter, 200 µl medium was removed and 50 µl luciferine substrate solution from the LucLite luminescence kit (Packard, Meriden, USA) was added. […] Percentage maximal antagonistic efficacy was related to the maximal antagonistic efficacy of reference GR antagonist Org 34116. Similar procedures were followed for the other human steroid receptor assays (for more detailed information see Supportive Information) (SI text).\n(§3) Similar procedures were followed for the other human steroid receptor assays containing combinations of human progesterone receptor B (PR-B) and MMTV-Luc, human androgen receptor (AR) and MMTV-Luc, human chimeric glucocorticoid-mineralocorticoid receptor (GGM, Trapp et al. (1994), Neuron 13: 1457) and MMTV-Luc, human estrogen receptor alpha (ERα) and rat oxytocin-Luc (45), and human estrogen receptor beta (ERβ) and rat oxytocin-Luc, respectively."}, "[2]": {"biological_target": "T2, human androgen receptor (AR) (Homo sapiens, UniProt P10275)", "T2 construct": "expressed in transfected cells; host or cells: CHO K1", "T2 sequence (P10275 1-920)": "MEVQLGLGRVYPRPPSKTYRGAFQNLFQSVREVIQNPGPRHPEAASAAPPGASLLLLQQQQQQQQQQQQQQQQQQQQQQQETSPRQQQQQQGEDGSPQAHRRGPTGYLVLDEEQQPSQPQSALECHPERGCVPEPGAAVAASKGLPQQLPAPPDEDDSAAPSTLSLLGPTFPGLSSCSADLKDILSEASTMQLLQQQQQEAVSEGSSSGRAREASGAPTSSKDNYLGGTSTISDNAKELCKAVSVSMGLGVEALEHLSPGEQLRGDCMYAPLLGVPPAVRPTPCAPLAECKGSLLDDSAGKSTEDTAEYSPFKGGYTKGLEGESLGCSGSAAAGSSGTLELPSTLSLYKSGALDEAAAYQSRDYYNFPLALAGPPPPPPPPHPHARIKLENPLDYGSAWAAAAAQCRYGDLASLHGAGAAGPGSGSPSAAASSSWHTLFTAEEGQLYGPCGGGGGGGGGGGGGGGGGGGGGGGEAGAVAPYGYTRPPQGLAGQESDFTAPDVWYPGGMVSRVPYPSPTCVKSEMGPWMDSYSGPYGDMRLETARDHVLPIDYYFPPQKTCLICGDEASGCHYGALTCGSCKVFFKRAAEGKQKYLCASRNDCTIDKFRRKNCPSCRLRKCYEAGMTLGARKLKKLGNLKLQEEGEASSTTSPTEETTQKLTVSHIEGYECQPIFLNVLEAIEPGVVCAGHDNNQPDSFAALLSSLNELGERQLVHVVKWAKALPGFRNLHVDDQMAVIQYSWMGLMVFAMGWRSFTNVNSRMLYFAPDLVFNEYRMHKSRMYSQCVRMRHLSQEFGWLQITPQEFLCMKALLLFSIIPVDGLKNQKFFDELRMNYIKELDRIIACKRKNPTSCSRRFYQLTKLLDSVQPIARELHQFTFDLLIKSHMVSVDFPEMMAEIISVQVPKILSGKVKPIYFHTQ", "assay": "CHO steroid receptor reporter assay, AR / MMTV-Luc", "assay_type": "cell-based", "text": "as §1, §2, §3"}}, "note": "pEC50, pIC50: −log10 of the molar value."}
{"compound": "Cc1nnsc1C(=O)N[C@H]1CCN2c3ccc(C#N)cc3[C@@H](C)c3ccccc3[C@@H]2C1", "note": "[Org 214007-0]", "values": [{"measurement": "pIC50", "setting": "[1]; mean (±SD), read-out: IC50 (antagonist)", "result": 7.71}, {"measurement": "Emax", "setting": "[1]; read-out: % efficacy (antagonist)", "result": "> 87", "unit": "%"}, {"measurement": "pEC50", "setting": "[1]; read-out: EC50 (agonist)", "result": "< 7.00"}, {"measurement": "% agonist potency", "setting": "[1]; relative to reference compound", "result": "<0.03", "unit": "%"}, {"measurement": "% antagonist potency", "setting": "[1]; relative to reference compound, mean (±SD)", "result": "0.46 (±0.2) %"}, {"measurement": "pEC50", "setting": "[2]; read-out: EC50 (agonist)", "result": "< 7.00"}, {"measurement": "pIC50", "setting": "[2]; read-out: IC50 (antagonist)", "result": "< 6.00"}, {"measurement": "% agonist potency", "setting": "[2]; relative to reference compound", "result": "<0.13", "unit": "%"}, {"measurement": "% antagonist potency", "setting": "[2]; relative to reference compound", "result": "<3.83", "unit": "%"}]}
